Key:
[1] = tested on: Plasmodium falciparum chloroquine-resistant clone: Indochina-W2 (IndCh-W2); test: in vitro anti-malarial activity, semiautomated microdilution technique, chloroquine-resistant clone; type: cell-based; settings: for I-QHS: index of activity (IC50) relative to Qinghaosu under the same conditions; for I-CHLQ: index of activity (IC50) relative to chloroquine under the same conditions
From the text: (§1) Determination of anti-malarial activity of the compounds was effected according to the methods published by R E Desjardins et al and W K Milhous et al (Desjardins, R.E., C.J. Cranfield, D.E. Haynes, and J.D. Chulay. 1979. Quantitative assessment of anitmalarial activity in vitro by a semiautomated microdilution technique. Antimicrob. Agents Chemother. 16:710-718. Milhous, W.K., N.F. Weatherley, J.H. Bowdre, and R.E. Desjardins. 1985. In vitro activities of and mechanisms of resistance to antifol antimalarials. Antimicrob. Agents Chemother. 27:525-530). For such determinations, the following clones of Plasmodium falciparum were used: chloroquine-resistant clone: Indochina-W2 (IndCh-W2) chloroquine-sensitive clone: Sierra Leone-D6 (SL-D6) The activity measured was then compared as indexes under the same conditions to the activity of Qinghaosu (I-QHS) and chloroquine (I-CHLQ), respectively. The indexes (I) provide a measure of the activity of the 1,2,4-trioxane derivatives tested in relation to the activity of the known anti-malarial substances.

[2] = tested on: Plasmodium falciparum chloroquine-sensitive clone: Sierra Leone-D6 (SL-D6); test: in vitro anti-malarial activity, semiautomated microdilution technique, chloroquine-sensitive clone; type: cell-based; settings: clone S6-D6; for I-QHS: index of activity (IC50) relative to Qinghaosu under the same conditions; for I-CHLQ: index of activity (IC50) relative to chloroquine under the same conditions
From the text: as §1

[3] = tested on: mefloquine-resistant clones of Plasmodium falciparum (MEF-W2); test: in vitro anti-malarial activity, mefloquine-resistant clones; type: cell-based; settings: index of activity (IC50) relative to Qinghaosu; clone MEF-W2
From the text: as §1
Certain derivatives of 1,2,4-trioxane listed below were tested against mefloquine-resistant clones of Plasmodium falciparum (MEF-W2), according to the method previously cited.

[4] = tested on: mixed lymphocyte reaction; test: immunomodulatory activity (in vitro mitogenic assay; mixed lymphocyte reaction); type: cell-based
Protocol: Several of the compounds mentioned in Examples 1 to 17 were also tested for immunomodulatory activity (in vitro mitogenic assay; mixed lymphocyte reaction).

[5] = tested on: chloroquine-resistant strains of P. falciparum; settings: cited from earlier work

Structure (SMILES) | I-QHS [1] | I-CHLQ [1] | I-QHS [2] | I-CHLQ [2] | I-QHS [3] | immunomodulatory activity [4] | activity against chloroquine-resistant strains of P. falciparum [5]
CC1(C)OO[C@]2(c3ccccc3)C=C(c3ccccc3)[C@@H](O)[C@@H]2O1 [Compound 2] | 0.12 | 5.4 | 0.25 | 0.27 | 0.10 |  | 
O=C1CCC2(CC1)OO[C@]1(c3ccccc3)CC(c3ccccc3)=C[C@@H]1O2 (racemic) [Compound 17] | 2.1 |  | 1.06 |  |  |  | 
C1=C(c2ccccc2)C[C@@]2(c3ccccc3)OOC3(CCOCC3)O[C@@H]12 [Compound 12] | 18.7 | 295.3 | 1.10 | 0.67 |  | most important activity | 
CCOC(=O)CCCC1(C)OO[C@]2(c3ccccc3)CC(c3ccccc3)=C[C@@H]2O1 (stereo partly drawn) [Compound 18] | 0.09 |  | 0.28 |  |  |  | 
C1=C(c2ccccc2)C[C@@]2(c3ccccc3)OOC3(CCCC3)O[C@@H]12 [Compound 4] | 2.1 | 12.2 | 0.79 | 0.82 |  |  | 
CCC1(C)OO[C@]2(c3ccccc3)CC(c3ccccc3)=C[C@@H]2O1 (stereo partly drawn) [Compound 21] | 0.075 |  | 0.36 |  |  |  | 
O[C@@H]1C(c2ccccc2)=C[C@@]2(c3ccccc3)OOC3(CCCC3)O[C@@H]12 [Compound 11] | 4.7 | 73.8 | 1.85 | 1.16 |  |  | 
OO[C@@H]1C(c2ccccc2)=C[C@@]2(c3ccccc3)OOC3(CCCCC3)O[C@@H]12 [Compound 13] | 2.2 | 33.9 | 1.47 | 0.93 |  |  | 
C1=C(c2ccccc2)C[C@@]2(c3ccccc3)OOC3(CCC4(CC3)OCCO4)O[C@@H]12 (racemic) [Compound 20] | 0.67 |  | 0.39 |  |  |  | 
C1=C(c2ccccc2)C[C@@]2(c3ccccc3)OOC3(CCCCC3)O[C@@H]12 [Compound 5] | 0.26 | 1.5 | 0.20 | 0.20 |  |  | 
O=C1C(c2ccccc2)=C[C@@]2(c3ccccc3)OOC3(CCCCC3)O[C@@H]12 [Compound 15] | 3.5 |  | 1.93 |  |  |  | 
CC1(C)OO[C@]2(c3ccccc3)C=C(c3ccccc3)C(=O)[C@@H]2O1 [Compound 9] | 0.08 | 3.5 | 0.20 | 0.21 |  |  | 
O[C@@H]1C(c2ccccc2)=C[C@@]2(c3ccccc3)OOC3(CCCCC3)O[C@@H]12 [Compound 16] | 1.6 |  | 0.49 |  |  |  | 
C[C@@H]1CC[C@H]2[C@@H](C)C(=O)O[C@@H]3O[C@@]4(C)CC[C@@H]1[C@]32OO4 [Qinghaosu] |  |  |  |  |  |  | remarkably active
CC(C)CC(=O)O[C@@H]1C(c2ccccc2)=C[C@@]2(c3ccccc3)OOC(C)(C)O[C@@H]12 [Compound 10] | 0.04 | 1.7 | 0.09 | 0.10 |  |  | 
CC(C)OC(=O)O[C@@H]1C(c2ccccc2)=C[C@@]2(c3ccccc3)OOC(C)(C)O[C@@H]12 [Compound 8] | 0.10 | 4.2 | 0.16 | 0.18 |  |  | 
CC1(C)OO[C@]2(c3ccccc3)C=C(c3ccccc3)[C@@H](OC(=O)c3ccccc3F)[C@@H]2O1 [Compound 7] | 0.04 | 1.6 | 0.05 | 0.06 |  |  | 
CC1(C)OO[C@]2(c3ccccc3)CC(c3ccccc3)=C[C@@H]2O1 [Compound 1] | 0.13 | 5.7 | 0.18 | 0.20 | 0.15 |  | 

Source: patent EP0286316A1, “1,2,4-Trioxane Derivatives” (Jefford, Charles W., priority 1987, dated 1988)
